What was measured:
Test in all cases: drug sensitivity score (DSS3, normalised partial AUC of % inhibition dose-response) (DSS (score)); higher = more sensitive (stronger inhibition of viability); extreme values may be limits of the assay
Details in all cases: 72 h; library: FO5A; assay format: 2D, 384-well, CellTiter-Glo
[1] = test system: FMOC02_2 (patient-derived low-grade serous ovarian cancer cells)
Summary of the method: (§1)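 On 384-well flat clear-bottom plates carrying compounds at five concentrations across a 10,000-fold range, patient-derived ovarian cancer cells below passage 10 were incubated for 72 h at 37 °C with 5% CO2. CellTiter-Glo readout of viability was processed in Breeze. A higher drug sensitivity score, defined as the partial area under the percent-inhibition dose-response curve divided by the log of the upper asymptote, means greater sensitivity.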

[2] = test system: FMOC09 (patient-derived high-grade serous ovarian cancer cells)
Summary of the method: as §1

[3] = test system: FMOC25_2 (patient-derived low-grade serous ovarian cancer cells)
Summary of the method: as §1

[4] = test system: FMOC22 (patient-derived mucinous ovarian cancer cells)
Summary of the method: as §1

[5] = test system: FMOC06 (patient-derived mucinous ovarian cancer cells)
Summary of the method: as §1

[6] = test system: FMOC14 (patient-derived high-grade serous ovarian cancer cells)
Summary of the method: as §1

[7] = test system: FMOC02_3 (patient-derived low-grade serous ovarian cancer cells)
Summary of the method: as §1

[8] = test system: FMOC03 (patient-derived mucinous ovarian cancer cells)
Summary of the method: as §1

[9] = test system: FMOC24 (patient-derived high-grade serous ovarian cancer cells)
Summary of the method: as §1

SMILES: CNC(=O)c1cccc(-c2ccc3c(N4CCOC[C@@H]4C)nc(N4CCOC[C@@H]4C)nc3n2)c1 [Vistusertib]
- drug sensitivity score [1]: 20.9
- drug sensitivity score [2]: 8.9
- drug sensitivity score [3]: 18.2
- drug sensitivity score [4]: 9.7
- drug sensitivity score [5]: 14.8
- drug sensitivity score [6]: 12.6
- drug sensitivity score [7]: 21.6
- drug sensitivity score [8]: 13.1
- drug sensitivity score [9]: 8.35

SMILES: CO[C@H]1CC[C@H](N2C(=O)CNc3ncc(-c4ccc(C(C)(C)O)nc4)nc32)CC1 [CC-223]
- drug sensitivity score [1]: 8.6
- drug sensitivity score [2]: 3.5
- drug sensitivity score [3]: 8.6
- drug sensitivity score [4]: 3
- drug sensitivity score [5]: 5.1
- drug sensitivity score [6]: 3.5
- drug sensitivity score [7]: 9.2
- drug sensitivity score [8]: 4
- drug sensitivity score [9]: 2.4

SMILES: CC(C)(C)c1cc(NC(=O)Nc2ccc(Oc3ccnc4[nH]c(=O)cnc34)cc2F)n(-c2ccccc2)n1
- drug sensitivity score [1]: 0.2
- drug sensitivity score [2]: 3
- drug sensitivity score [3]: 17.8
- drug sensitivity score [4]: 3.8
- drug sensitivity score [5]: 3.6
- drug sensitivity score [6]: 0.1
- drug sensitivity score [7]: 7.1
- drug sensitivity score [8]: 5.3
- drug sensitivity score [9]: 1.6

SMILES: Cc1ccc(NS(=O)(=O)c2cccc(C#N)c2)c2[nH]cc(C#N)c12 [E7820]
- drug sensitivity score [1]: 4.4
- drug sensitivity score [2]: 12.4
- drug sensitivity score [3]: 7.4
- drug sensitivity score [4]: 10.5
- drug sensitivity score [5]: 1.5
- drug sensitivity score [6]: 4.5
- drug sensitivity score [7]: 10.1
- drug sensitivity score [8]: 3.9
- drug sensitivity score [9]: 16.3

SMILES: C=C1C[C@@H]2CC[C@@]34C[C@H]5O[C@H]6[C@@H](O3)[C@H]3O[C@H](CC[C@@H]3O[C@H]6[C@H]5O4)CC(=O)C[C@@H]3[C@@H](OC)[C@@H](C[C@H](O)CN)O[C@H]3C[C@H]3O[C@@H](CC[C@@H]1O2)C[C@@H](C)C3=C [Eribulin]
- drug sensitivity score [1]: 14.9
- drug sensitivity score [2]: 13.1
- drug sensitivity score [3]: 15.1
- drug sensitivity score [4]: 15.5
- drug sensitivity score [5]: 12.1
- drug sensitivity score [6]: 0
- drug sensitivity score [7]: 19.2
- drug sensitivity score [8]: 18
- drug sensitivity score [9]: 0.6

SMILES: CC(C)C[C@H](NC(=O)CNC(=O)c1cc(Cl)ccc1Cl)B(O)O [Ixazomib]
- drug sensitivity score [1]: 14.3
- drug sensitivity score [2]: 6.8
- drug sensitivity score [3]: 14.5
- drug sensitivity score [4]: 16.6
- drug sensitivity score [5]: 12.1
- drug sensitivity score [6]: 15.3
- drug sensitivity score [7]: 6
- drug sensitivity score [8]: 15.1
- drug sensitivity score [9]: 16.8

SMILES: C=CC(=O)N1CC/C(=C\c2ccc(F)c([N+](=O)[O-])c2)C(=O)/C(=C/c2ccc(F)c([N+](=O)[O-])c2)C1 [VLX1570]
- drug sensitivity score [1]: 22.3
- drug sensitivity score [2]: 23
- drug sensitivity score [3]: 14.7
- drug sensitivity score [4]: 10.7
- drug sensitivity score [5]: 18.2
- drug sensitivity score [6]: 14.8
- drug sensitivity score [7]: 25
- drug sensitivity score [8]: 15.2
- drug sensitivity score [9]: 15.4

From the supplement of paper PMC9938120
